Consider six compounds from PubChem BioAssay AID1918943 (Molecular Pharmacology Branch, DTP, NCI, 2023).

In the assay the test system is 855422-203-R-J1-PDC complex spheroid viability. Briefly: Anticancer human tumor 855422-203-R-J1-PDC patient-derived bladder carcinoma cell line growth inhibition. The note with it: for viability, T/C: stronger effect = lower value. An outline of the steps:
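Complex spheroids of tumor cells with HUVEC and human MSCs, exposed to iadademstat combined with other agents. Each agent tested in half-log steps from near clinical Cmax (else 10 microM top), DMSO ≤0.25%.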

Where [1] appears, read: curve of first compound, second compound 0.1 µM.
[2] abbreviates: curve of first compound, second compound 0.316 µM.
[3] abbreviates: curve of first compound, second compound 1 µM.
Setting [4] is: curve of first compound, second compound 3.16 µM.
Setting [5] is: curve of first compound, second compound 10 µM.
Setting [6] is: second compound 0.1 µM, first compound 0.0316 µM.
[7] abbreviates: second compound 0.1 µM, first compound 0.1 µM.
The mark [8] stands for this setting: second compound 0.1 µM, first compound 0.316 µM.
Setting [9] is: second compound 0.1 µM, first compound 1 µM.
Where [10] appears, read: second compound 0.1 µM, first compound 3.16 µM.
Where [11] appears, read: second compound 0.1 µM, first compound 10 µM.
Where [12] appears, read: second compound 0.316 µM, first compound 0.0316 µM.
Where [13] appears, read: second compound 0.316 µM, first compound 0.1 µM.
Setting [14] is: second compound 0.316 µM, first compound 0.316 µM.
Where [15] appears, read: second compound 0.316 µM, first compound 1 µM.
[16] abbreviates: second compound 0.316 µM, first compound 3.16 µM.
Where [17] appears, read: second compound 0.316 µM, first compound 10 µM.
Where [18] appears, read: second compound 1 µM, first compound 0.0316 µM.
Where [19] appears, read: second compound 1 µM, first compound 0.1 µM.
Setting [20] is: second compound 1 µM, first compound 0.316 µM.
[21] abbreviates: second compound 1 µM, first compound 1 µM.
The mark [22] stands for this setting: second compound 1 µM, first compound 3.16 µM.
[23] abbreviates: second compound 1 µM, first compound 10 µM.
Where [24] appears, read: second compound 3.16 µM, first compound 0.0316 µM.
Where [25] appears, read: second compound 3.16 µM, first compound 0.1 µM.
[26] abbreviates: second compound 3.16 µM, first compound 0.316 µM.
Where [27] appears, read: second compound 3.16 µM, first compound 1 µM.
The mark [28] stands for this setting: second compound 3.16 µM, first compound 3.16 µM.
[29] abbreviates: second compound 3.16 µM, first compound 10 µM.
[30] abbreviates: second compound 10 µM, first compound 0.0316 µM.
Setting [31] is: second compound 10 µM, first compound 0.1 µM.
Setting [32] is: second compound 10 µM, first compound 0.316 µM.
The mark [33] stands for this setting: second compound 10 µM, first compound 1 µM.
The mark [34] stands for this setting: second compound 10 µM, first compound 3.16 µM.
[35] abbreviates: second compound 10 µM, first compound 10 µM.

“And” between values parts separate entries of the source, which are not always exact repeats. Equal entries are not always repeated.
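Further: drug exposure lasted 7 days starting on day 3 after seeding.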
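Wherever viability, T/C is given: luminescence viability as percent of DMSO vehicle wells = 100%.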

In general, IC50 refers to the midpoint of a concentration-inhibition curve. Broadly, the viability, T/C is the result in the treated group divided by that in the control group, in per cent. Consider `O=C(c1cc(Cc2n[nH]c(=O)c3ccccc23)ccc1F)N1CCN(C(=O)C2CC2)CC1` + NC1CC1c1ccc(-c2cccc(O)c2)cc1, for which the IC50 under setting [1] is above 10 µM; the IC50 under setting [2] was above 10 µM; the half-maximal inhibitory concentration (IC50) under setting [3] was above 10 µM; the IC50 under setting [4] was above 10 µM; the IC50 under setting [5] was above 10 µM. In addition, the viability, T/C runs as follows: under setting [6], 98.9%; under setting [7], 99.2%; under setting [8], 99.8%; under setting [9], 98%; under setting [10], 102%; under setting [11], 84%. Besides, the viability, T/C by setting is: under setting [12], 91.1%; under setting [13], 87.4%; under setting [14], 97.2%; under setting [15], 98.4%; under setting [16], 101%; under setting [17], 81.4%. For the same compound, the viability, T/C by setting is: under setting [18], 90.1%; under setting [19], 87.7%; under setting [20], 89.3%; under setting [21], 95.5%; under setting [22], 90.3%; under setting [23], 80.8%. Moreover, the viability, T/C reads like this: under setting [24], 94.4%; under setting [25], 89.7%; under setting [26], 92.1%; under setting [27], 91.3%; under setting [28], 93.6%; under setting [29], 70.1%. Further, the viability, T/C runs as follows: under setting [30], 92.2%; under setting [31], 89.4%; under setting [32], 85.1%; under setting [33], 89.6%; under setting [34], 83.3%; under setting [35], 55.5%.

Regarding `CC1COCCN1c1cc(C2(S(C)(=N)=O)CC2)nc(-c2ccnc3[nH]ccc23)n1` (stereo unspecified) + NC1CC1c1ccc(-c2cccc(O)c2)cc1, the half-maximal inhibitory concentration (IC50) worked out at 2.74 µM under setting [1]; 2.63 µM under setting [2]; 2.49 µM under setting [3]; 2.29 µM under setting [4]; 2.11 µM under setting [5]. Further, the viability, T/C is 93.1% under setting [6]; 93.2% under setting [7]; 94.2% under setting [8]; 74.6% under setting [9]; 47.2% under setting [10]; 39.7% under setting [11]. The viability, T/C was 102% under setting [12]; 91.2% under setting [13]; 97.2% under setting [14]; 79.9% under setting [15]; 44.4% under setting [16]; 43.5% under setting [17]. The viability, T/C was 87.9% under setting [18]; 84.4% under setting [19]; 93.4% under setting [20]; 75% under setting [21]; 44.1% under setting [22]; 40.5% under setting [23]. Also, the viability, T/C was 88.4% under setting [24]; 93.4% under setting [25]; 97.1% under setting [26]; 77.2% under setting [27]; 39.7% under setting [28]; 38.9% under setting [29]. The viability, T/C was 104% under setting [30]; 87.2% under setting [31]; 101% under setting [32]; 75.5% under setting [33]; 34.5% under setting [34]; 37.7% under setting [35].

Turning to `COc1cc(C2c3cc4c(cc3C(OC3OC5COC(C)OC5C(O)C3O)C3COC(=O)C23)OCO4)cc(OC)c1O` (stereo unspecified) + NC1CC1c1ccc(-c2cccc(O)c2)cc1, the IC50 reads like this: under setting [1], 0.148 µM; under setting [2], 0.155 µM; under setting [3], 0.129 µM; under setting [4], 0.119 µM; under setting [5], 0.0921 µM. The viability, T/C is 96.3% (second compound 0.1 µM, first compound 0.00949 µM); 98.3% (second compound 0.1 µM, first compound 0.03 µM); 59.5% (second compound 0.1 µM, first compound 0.0949 µM); 31.1% (second compound 0.1 µM, first compound 0.3 µM); 19.7% (second compound 0.1 µM, first compound 0.949 µM); 10.7% (second compound 0.1 µM, first compound 3 µM). Further, the viability, T/C reads like this: (second compound 0.316 µM, first compound 0.00949 µM) 101%; (second compound 0.316 µM, first compound 0.03 µM) 102%; (second compound 0.316 µM, first compound 0.0949 µM) 60.9%; (second compound 0.316 µM, first compound 0.3 µM) 32.6%; (second compound 0.316 µM, first compound 0.949 µM) 19.7%; (second compound 0.316 µM, first compound 3 µM) 11.6%. Also, the viability, T/C is 91.6% (second compound 1 µM, first compound 0.00949 µM); 95.8% (second compound 1 µM, first compound 0.03 µM); 55.4% (second compound 1 µM, first compound 0.0949 µM); 28.9% (second compound 1 µM, first compound 0.3 µM); 17.6% (second compound 1 µM, first compound 0.949 µM); 10.9% (second compound 1 µM, first compound 3 µM). Further, the viability, T/C reads like this: (second compound 3.16 µM, first compound 0.00949 µM) 100%; (second compound 3.16 µM, first compound 0.03 µM) 96.9%; (second compound 3.16 µM, first compound 0.0949 µM) 52.3%; (second compound 3.16 µM, first compound 0.3 µM) 27.9%; (second compound 3.16 µM, first compound 0.949 µM) 16.2%; (second compound 3.16 µM, first compound 3 µM) 8.34%. The viability, T/C (second compound 10 µM, first compound 0.00949 µM) was 99.5%; the viability, T/C (second compound 10 µM, first compound 0.03 µM) was 97%; the viability, T/C (second compound 10 µM, first compound 0.0949 µM) is 46.5%; the viability, T/C (second compound 10 µM, first compound 0.3 µM) is 26.6%; the viability, T/C (second compound 10 µM, first compound 0.949 µM) was 18.4%; the viability, T/C (second compound 10 µM, first compound 3 µM) is 9.12%.

Regarding `CCN(c1cc(-c2ccc(CN3CCOCC3)cc2)cc(C(=O)NCc2c(C)cc(C)[nH]c2=O)c1C)C1CCOCC1`, the viability, T/C by setting is: (compound 0.00949 µM) 105% and 109%; (compound 0.03 µM) 95.1% and 101%; (compound 0.0949 µM) 94.6% and 97.5%; (compound 0.3 µM) 86.5% and 91.6%; (compound 0.949 µM) 88% and 88.5%; (compound 3 µM) 84.7% and 89%. For the same compound, for the setting “curve of compound”, the IC50 is above 3 µM.

For the compound `COc1ccc([C@@H](O)c2cc(-c3ncnc4cc(N5CCOCC5)ccc34)c(F)cc2Cl)nn1`, the viability, T/C (compound 0.0316 µM) is 95% and 94.1%; the viability, T/C (compound 0.1 µM) is 94.7% and 94.4%; the viability, T/C (compound 0.316 µM) is 79.5% and 92.2%; the viability, T/C (compound 1 µM) is 74.3% and 85.5%; the viability, T/C (compound 3.16 µM) is 53.7% and 69.3%; the viability, T/C (compound 10 µM) is 38.6% and 39.6%. Moreover, the concentration for half-maximal inhibition (IC50) (curve of compound) is 4.48 µM and 6.68 µM.

With `COc1cc(C2c3cc4c(cc3C(OC3OC5COC(C)OC5C(O)C3O)C3COC(=O)C23)OCO4)cc(OC)c1O` (stereo unspecified), the viability, T/C runs as follows: (compound 0.00949 µM) 88.6% and 97.5%; (compound 0.03 µM) 79.6% and 102%; (compound 0.0949 µM) 61% and 58.4%; (compound 0.3 µM) 28.3% and 31.1%; (compound 0.949 µM) 13.5% and 15.1%; (compound 3 µM) 6.36% and 6.7%. In addition, the IC50 (curve of compound) was 0.138 µM and 0.148 µM.
